Measured values reported in the NIST ThermoML archive (doi:10.1016/j.jct.2012.03.027).

Key:
[1] = for vapor or sublimation pressure: Closed cell (Static) method; for Triple point temperature: DTA
[2] = Molar enthalpy of transition or fusion; settings: Crystal; DSC
[3] = molar heat capacity at constant pressure; settings: 298.15 K, 101.33 kPa, Drop calorimetry

OCC(F)(F)C(F)(F)C(F)(F)C(F)(F)C(F)(F)C(F)(F)C(F)(F)C(F)(F)F [2,2,3,3,4,4,5,5,6,6,7,7,8,8,9,9,9-heptadecafluoro-1-nonanol]
[1]
Settings | vapor or sublimation pressure [kPa]
275.71 K, Crystal | 0.00048
278.17 K, Crystal | 0.00067
283.16 K, Crystal | 0.00128
288.15 K, Crystal | 0.0025
293.14 K, Crystal | 0.00477
298.11 K, Crystal | 0.00866
303.13 K, Crystal | 0.01568
308.1 K, Crystal | 0.02727
313.09 K, Crystal | 0.04767
318.06 K, Crystal | 0.07933
323.03 K, Crystal | 0.13
342.99 K, Liquid | 0.8017
344 K, Liquid | 0.8571
345.48 K, Liquid | 0.9447
347.97 K, Liquid | 1.11
350.45 K, Liquid | 1.3
351.45 K, Liquid | 1.383

Settings | Triple point temperature [K]
[1], Crystal | 342.2

Settings | Molar enthalpy of transition or fusion [kcal/mol]
[2] | 3.97

OCC(F)(F)C(F)(F)C(F)(F)C(F)(F)C(F)(F)C(F)(F)C(F)(F)F [2,2,3,3,4,4,5,5,6,6,7,7,8,8,8-pentadecafluoro-1-octanol]
[1]
Settings | vapor or sublimation pressure [kPa]
268.27 K, Crystal | 0.00104
273.24 K, Crystal | 0.00201
278.21 K, Crystal | 0.00388
283.17 K, Crystal | 0.00714
288.15 K, Crystal | 0.01272
293.15 K, Crystal | 0.02273
295.64 K, Crystal | 0.03033
298.14 K, Crystal | 0.03911
300.61 K, Crystal | 0.05177
303.13 K, Crystal | 0.06648
305.62 K, Crystal | 0.08724
308.1 K, Crystal | 0.1113
310.56 K, Crystal | 0.1412
313.08 K, Crystal | 0.1815
315.52 K, Crystal | 0.2288
318.05 K, Crystal | 0.2936
320.52 K, Liquid | 0.3615
323.01 K, Liquid | 0.4351
325.52 K, Liquid | 0.524
328.01 K, Liquid | 0.6236
330.49 K, Liquid | 0.7457
332.97 K, Liquid | 0.871
335.47 K, Liquid | 1.048
337.97 K, Liquid | 1.233
339.44 K, Liquid | 1.359

Crystal
Settings | Triple point temperature [K] | molar heat capacity at constant pressure [J/K/mol]
[1] | 318.2 | –
[3] | – | 468.6

Settings | Molar enthalpy of transition or fusion [kcal/mol]
[2] | 2.84

OCC(F)(F)C(F)(F)C(F)(F)C(F)(F)C(F)(F)C(F)(F)C(F)(F)C(F)(F)C(F)(F)C(F)(F)F [1H,1H-perfluoroundecan-1-ol]
[1], Crystal
Settings | vapor or sublimation pressure [kPa]
310.53 K | 0.00219
313.02 K | 0.00299
315.51 K | 0.00402
318 K | 0.00537
320.48 K | 0.00715
323 K | 0.00968
325.47 K | 0.01321
327.95 K | 0.01724
330.42 K | 0.02207
332.87 K | 0.02909
335.42 K | 0.03815
337.85 K | 0.04977
340.35 K | 0.06415
342.81 K | 0.08275
345.3 K | 0.1064
347.8 K | 0.1361

Settings | Triple point temperature [K]
[1], Crystal | 374

Settings | Molar enthalpy of transition or fusion [kcal/mol]
[2] | 5.35

OCC(F)(F)C(F)(F)C(F)(F)C(F)(F)C(F)(F)C(F)(F)C(F)(F)C(F)(F)C(F)(F)F [1H,1H-perfluoro-1-decanol]
[1], Crystal
Settings | vapor or sublimation pressure [kPa]
303.92 K | 0.00452
308 K | 0.00755
312.98 K | 0.01315
318.07 K | 0.02289
323.07 K | 0.03765
327.88 K | 0.06457
332.84 K | 0.1045
337.79 K | 0.1714
342.75 K | 0.2677
347.71 K | 0.414
352.65 K | 0.6247
355.65 K | 0.8008
358.15 K | 0.97

Settings | Triple point temperature [K]
[1], Crystal | 358.5

Settings | Molar enthalpy of transition or fusion [kcal/mol]
[2] | 3.8

OCC(F)(F)C(F)(F)C(F)(F)C(F)(F)C(F)(F)C(F)(F)F [2,2,3,3,4,4,5,5,6,6,7,7,7-tridecafluoro-1-heptanol]
[1], Liquid
Settings | vapor or sublimation pressure [kPa]
275.55 K | 0.01786
278.02 K | 0.02308
280.53 K | 0.03001
282.99 K | 0.03804
285.49 K | 0.04858
287.97 K | 0.06227
290.46 K | 0.07837
292.95 K | 0.09912
295.45 K | 0.1247
297.97 K | 0.1587
300.43 K | 0.1946
302.94 K | 0.2431
305.4 K | 0.294
307.91 K | 0.3632
310.39 K | 0.4344
312.88 K | 0.5339
315.35 K | 0.6248
317.87 K | 0.7553

Settings | molar heat capacity at constant pressure [J/K/mol]
[3], Liquid | 476.8
